Data on 21 molecules can be found in US8017600B2, “Imidazole compounds” (Janssen Pharmaceutica NV, priority 2004, dated 2011).

For assay [1], the target named is T1, human histamine H4 receptor (Homo sapiens, UniProt Q9H3N8).
T1 construct: expressed in transfected cells; host or cells: SK-N-MC cells or COS7 cells, transient transfection; cell membranes
In words: Binding assay on recombinant human histamine H4 receptor (3H-histamine displacement). Conditions: membranes of SK-N-MC or COS7 cells expressing human H4 receptor, Cheng-Prusoff. As for the experimental part: SK-N-MC cells or COS7 cells were transiently transfected with pH4R and grown in 150 cm^2 tissue culture dishes. Cells were washed with saline solution, scraped with a cell scraper and collected by centrifugation (1000 rpm, 5 min). Cell membranes were prepared by homogenization of the cell pellet in 20 mM Tris-HCl with a polytron tissue homogenizer for 10 sec at high speed. Homogenate was centrifuged at 1000 rpm for 5 min at 4° C. The supernatant was then collected and centrifuged at 20,000×g for 25 min at 4° C. The final pellet was resuspended in 50 mM Tris-HCl. Cell membranes were incubated with ^3H-histamine (5-70 nM) in the presence or absence of excess histamine (10,000 nM). Incubation occurred at room temperature for 45 min. Membranes were harvested by rapid filtration over Whatman GF/C filters and washed 4 times with ice-cold 50 mM Tris HCl. Filters were then dried, mixed with scintillant and counted for radioactivity. SK-N-MC or COS7 cells expressing human histamine H4 receptor were used to measure the affinity of binding of other compounds and their ability to displace ^3H-ligand binding by incubating the above-described reaction in the presence of various concentrations of inhibitor or compound to be tested.

Another assay has as its system human eosinophils. The assay can be described thus: Inhibition of histamine-induced eosinophil shape change (gated autofluorescence forward scatter assay). Conditions: for Fold Change: eosinophil shape change, 10 μM antagonist; for effect on histamine-induced shape change: human eosinophils, result in words.

What is called Ki is a measure of affinity in units of concentration, obtained from inhibition or displacement. For orientation: IC50 means the concentration that inhibits the measured activity by half.

The structures appear in SMILES notation.

T1 sequence (Q9H3N8 whole entry): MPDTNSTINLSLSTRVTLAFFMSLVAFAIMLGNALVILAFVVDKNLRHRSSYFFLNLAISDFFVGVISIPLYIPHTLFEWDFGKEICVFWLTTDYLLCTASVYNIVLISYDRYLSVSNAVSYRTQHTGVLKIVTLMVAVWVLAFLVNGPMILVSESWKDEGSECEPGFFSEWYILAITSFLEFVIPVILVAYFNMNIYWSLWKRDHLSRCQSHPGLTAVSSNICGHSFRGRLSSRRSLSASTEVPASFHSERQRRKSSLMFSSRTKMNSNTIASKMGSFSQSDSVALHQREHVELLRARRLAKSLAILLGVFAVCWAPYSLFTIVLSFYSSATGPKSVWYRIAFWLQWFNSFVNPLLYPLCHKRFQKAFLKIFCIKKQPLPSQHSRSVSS

As for `Cc1[nH]c(-c2ccc(OCCCN3CCN(C)CC3)nc2)nc1-c1ccc(C(F)(F)F)cc1` [Example 32, 1-Methyl-4-(3-{5-[5-methyl-4-(4-trifluoromethyl-phenyl)-1H-imidazol-2-yl]-pyridin-2-yloxy}-propyl)-piperazine], in assay [1], the Ki stood at 230 nM.

In the case of `Cc1[nH]c(-c2ccc(OCCCN3CCN(C)CC3)nc2)nc1-c1cccc(C(F)(F)F)c1` [Example 33, 1-Methyl-4-(3-{5-[5-methyl-4-(3-trifluoromethyl-phenyl)-1H-imidazol-2-yl]-pyridin-2-yloxy}-propyl)-piperazine], in assay [1], the Ki is 63 nM.

In the case of `Cc1[nH]c(-c2cccc(OCCCCC3CCN(C)CC3)c2)nc1-c1ccc(Cl)cc1` [Example 34, 4-(4-{3-[4-(4-Chloro-phenyl)-5-methyl-1H-imidazol-2-yl]-phenoxy}-butyl)-1-methyl-piperidine], the Ki in assay [1] turned out to be 33 nM.

With `CN1CCC(CCCCOc2cccc(-c3nc(-c4ccccc4)c(C(F)(F)F)[nH]3)c2)CC1` [Example 35, 1-Methyl-4-{4-[3-(4-phenyl-5-trifluoromethyl-1H-imidazol-2-yl)-phenoxy]-butyl}-piperidine], the Ki in assay [1] was 57 nM.

Regarding `CN1CCC(CCCCOc2cc(-c3nc(-c4ccccc4)c(C(F)(F)F)[nH]3)ccn2)CC1` [Example 36, 2-[4-(1-Methyl-piperidin-4-yl)-butoxy]-4-(4-phenyl-5-trifluoromethyl-1H-imidazol-2-yl)-pyridine], in assay [1], the Ki stood at 54 nM.

As for `Cc1[nH]c(-c2ccnc(OCCCCC3CCN(C)CC3)c2)nc1-c1cccc(C(F)(F)F)c1` [Example 37, 2-[4-(1-Methyl-piperidin-4-yl)-butoxy]-4-[5-methyl-4-(3-trifluoromethyl-phenyl)-1H-imidazol-2-yl]-pyridine], in assay [1], the Ki was 174 nM.

For `Cc1cc(OCCCC2CCN(C)CC2)ccc1-c1nc(C)c(CC(C)C)[nH]1` [Example 38, 4-{3-[4-(5-Isobutyl-4-methyl-1H-imidazol-2-yl)-3-methyl-phenoxy]-propyl}-1-methyl-piperidine], the Ki in assay [1] came out at 230 nM.

On to `Cc1[nH]c(-c2ccnc(OCCCCC3CCN(C)CC3)c2)nc1-c1ccc(Cl)cc1` [Example 39, 4-[4-(4-Chloro-phenyl)-5-methyl-1H-imidazol-2-yl]-2-[4-(1-methyl-piperidin-4-yl)-butoxy]-pyridine], for which the Ki in assay [1] stood at 230 nM.

For the molecule `Cc1nc(-c2ccc(OCCCC3CCN(C)CC3)cc2Cl)[nH]c1CC(C)C` [Example 40, 4-{3-[3-Chloro-4-(5-isobutyl-4-methyl-1H-imidazol-2-yl)-phenoxy]-propyl}-1-methyl-piperidine], the Ki in assay [1] turned out to be 93 nM.

Regarding `Cc1[nH]c(-c2cccc(OCCCCC3CCN(C)CC3)c2)nc1-c1ccc(C(F)(F)F)cc1` [Example 41, 1-Methyl-4-(4-{3-[5-methyl-4-(4-trifluoromethyl-phenyl)-1H-imidazol-2-yl]-phenoxy}-butyl)-piperidine], the Ki in assay [1] was found to be 250 nM.

`CN1CCN(CCCOc2ccc(-c3ncc[nH]3)cc2Cl)CC1` [Example 42, 1-{3-[2-Chloro-4-(1H-imidazol-2-yl)-phenoxy]-propyl}-4-methyl-piperazine]: the Ki in assay [1] came out at 1960 nM.

As for `Cc1nc(-c2ccc(OCCCN3CCN(C)CC3)cc2Cl)[nH]c1C` [Example 43, 1-{3-[3-Chloro-4-(4,5-dimethyl-1H-imidazol-2-yl)-phenoxy]-propyl}-4-methyl-piperazine], the Ki in assay [1] turned out to be 2510 nM.

For the molecule `CN1CCN(CCCOc2ccc(-c3nc(-c4ccccc4)c(C(F)(F)F)[nH]3)c(Cl)c2)CC1` [Example 44, 1-{3-[3-Chloro-4-(4-phenyl-5-trifluoromethyl-1H-imidazol-2-yl)-phenoxy]-propyl}-4-methyl-piperazine], the Ki in assay [1] was 20 nM.

For the molecule `CN1CCCN(CCCOc2ccc(-c3nc(-c4ccccc4)c(C(F)(F)F)[nH]3)cc2Cl)CC1` [Example 45, 1-{3-[2-Chloro-4-(4-phenyl-5-trifluoromethyl-1H-imidazol-2-yl)-phenoxy]-propyl}-4-methyl-[1,4]diazepane], the Ki in assay [1] was 79 nM.

Take `Cc1cc(OCCCC2CCN(C)CC2)ccc1-c1nc(-c2cccc(C(F)(F)F)c2)c(C)[nH]1` [Example 46, 1-Methyl-4-(3-{3-methyl-4-[5-methyl-4-(3-trifluoromethyl-phenyl)-1H-imidazol-2-yl]-phenoxy}-propyl)-piperidine]: the Ki in assay [1] stood at 16 nM.

For the molecule `Cc1cc(OCCCC2CCN(C)CC2)ccc1-c1nc(-c2ccc(Cl)cc2)c(C)[nH]1` [Example 47, 4-(3-{4-[4-(4-Chloro-phenyl)-5-methyl-1H-imidazol-2-yl]-3-methyl-phenoxy}-propyl)-1-methyl-piperidine], in assay [1], the Ki came to 33 nM.

Take `Cc1cc(OCCOC2CCN(C)CC2)ccc1-c1nc(-c2ccc(Cl)cc2)c(C)[nH]1` [Example 48, 4-(2-{4-[4-(4-Chloro-phenyl)-5-methyl-1H-imidazol-2-yl]-3-methyl-phenoxy}-ethoxy)-1-methyl-piperidine]: the Ki in assay [1] was 620 nM.

For the molecule `CN1CCC(CCCCOc2cccc(-c3nc4cccnc4[nH]3)c2)CC1` [Example 69, 2-{3-[4-(1-Methyl-piperidin-4-yl)-butoxy]-phenyl}-3H-imidazo[4,5-b]pyridine], the Ki in assay [1] amounted to 1410 nM.

As to `CN1CCN(C(=O)c2cc3cc(Cl)ccc3[nH]2)CC1` [H4 Antagonist, (5-chloro-1H-indol-2-yl)-(4-methyl-piperazin-1-yl)-methanone], in the assay with human eosinophils (Homo sapiens, Eosinophil, read-out: IC50 of inhibition of histamine-induced eosinophil shape change), the IC50 was 270 nM.

Consider `CN(C)CCOC(c1ccccc1)c1ccccc1` [diphenhydramine], for which the “Fold Change” value in the assay with human eosinophils (histamine 0 μM) stood at 1.00; with human eosinophils (histamine 0.01 μM) it was 1.03; in the assay on human eosinophils (histamine 0.1 μM), 1.18; in the assay with human eosinophils (histamine 1 μM), 1.50; in the assay with human eosinophils (histamine 10 μM), 1.63. In the assay on human eosinophils, the “effect on histamine-induced shape change” value is “did not alter the histamine-induced shape change”.

Turning to `CNC(=C[N+](=O)[O-])NCCSCc1ccc(CN(C)C)o1` [ranatidine], the “Fold Change” value was 1.00 in the assay on human eosinophils (histamine 0 μM); 1.04 in the assay with human eosinophils (histamine 0.01 μM); 1.21 in the assay on human eosinophils (histamine 0.1 μM); 1.49 with human eosinophils (histamine 1 μM); 1.64 in the assay on human eosinophils (histamine 10 μM). For the same molecule, in the assay on human eosinophils, the “effect on histamine-induced shape change” value is reported as “did not alter the histamine-induced shape change”.
